Laboratory results: the CheMixHub ionic liquid set

Test: xn = mol fraction of the nth substance listed

CCCCCCCCCCCCCCCC[n+]1ccccc1.O=C([O-])C(O)c1ccccc1 + CC(C)C[C@H](N)C(=O)O + O
electrical conductivity [S/m], 101 kPa
Settings | 293.15 K | 298.15 K | 303.15 K | 308.15 K | 313.15 K
x1 = 9.1e-07, x2 = 0.001799 | 0.00171 | 0.00194 | 0.00216 | 0.0024 | 0.0027
x1 = 1.08e-06, x2 = 0 | 0.00061 | 0.00068 | 0.00076 | 0.00083 | 0.0009
x1 = 1.27e-06, x2 = 0.0009002 | 0.00143 | 0.0016 | 0.0018 | 0.002 | 0.0022
x1 = 1.98e-06, x2 = 0 | 0.001 | 0.0012 | 0.0013 | 0.0014 | 0.0016
x1 = 2.19e-06, x2 = 0.001799 | 0.00211 | 0.00239 | 0.00267 | 0.003 | 0.0033
x1 = 2.54e-06, x2 = 0.0009002 | 0.00187 | 0.00211 | 0.00235 | 0.0026 | 0.0029
x1 = 2.88e-06, x2 = 0 | 0.00147 | 0.0016 | 0.0018 | 0.002 | 0.0022
x1 = 3.1e-06, x2 = 0.001799 | 0.00244 | 0.00277 | 0.00309 | 0.0034 | 0.0038
x1 = 3.44e-06, x2 = 0.0009002 | 0.0022 | 0.00251 | 0.00278 | 0.0031 | 0.0034
x1 = 3.96e-06, x2 = 0 | 0.0019 | 0.0022 | 0.0024 | 0.0026 | 0.0029
x1 = 4.19e-06, x2 = 0.001799 | 0.00279 | 0.00316 | 0.00352 | 0.0039 | 0.0043
x1 = 4.69e-06, x2 = 0 | 0.0023 | 0.0026 | 0.0029 | 0.0031 | 0.0035
x1 = 4.71e-06, x2 = 0.0009002 | 0.00261 | 0.00294 | 0.00329 | 0.0036 | 0.004
x1 = 5.1e-06, x2 = 0.001799 | 0.00312 | 0.00353 | 0.00394 | 0.0044 | 0.0048
x1 = 5.95e-06, x2 = 0 | 0.00281 | 0.0032 | 0.0035 | 0.0038 | 0.0042
x1 = 5.98e-06, x2 = 0.0009002 | 0.00307 | 0.00345 | 0.00384 | 0.0043 | 0.0047
x1 = 6.74e-06, x2 = 0.001799 | 0.00363 | 0.0041 | 0.00457 | 0.0051 | 0.0056
x1 = 7.21e-06, x2 = 0 | 0.00341 | 0.0038 | 0.0042 | 0.0046 | 0.0051
x1 = 7.43e-06, x2 = 0.0009002 | 0.00352 | 0.00397 | 0.00441 | 0.0049 | 0.0054
x1 = 8.2e-06, x2 = 0.001799 | 0.00408 | 0.00463 | 0.00516 | 0.0057 | 0.0064
x1 = 8.7e-06, x2 = 0.0009002 | 0.00394 | 0.00445 | 0.00497 | 0.0055 | 0.0061
x1 = 8.83e-06, x2 = 0 | 0.00406 | 0.0046 | 0.005 | 0.0055 | 0.006
x1 = 9.84e-06, x2 = 0.001799 | 0.00451 | 0.00511 | 0.00572 | 0.0064 | 0.0071
x1 = 1.045e-05, x2 = 0 | 0.00469 | 0.0053 | 0.0058 | 0.0065 | 0.0071
x1 = 1.051e-05, x2 = 0.0009002 | 0.00444 | 0.00501 | 0.0056 | 0.0062 | 0.0069
x1 = 1.13e-05, x2 = 0.001799 | 0.00486 | 0.00551 | 0.00618 | 0.0069 | 0.0077
x1 = 1.196e-05, x2 = 0.0009002 | 0.00475 | 0.00538 | 0.006 | 0.0067 | 0.0075
x1 = 1.207e-05, x2 = 0 | 0.00516 | 0.0058 | 0.0064 | 0.0071 | 0.0079
x1 = 1.294e-05, x2 = 0.001799 | 0.00522 | 0.00591 | 0.00661 | 0.0074 | 0.0082
x1 = 1.323e-05, x2 = 0.0009002 | 0.00506 | 0.00573 | 0.0064 | 0.0071 | 0.0079
x1 = 1.351e-05, x2 = 0 | 0.00562 | 0.00631 | 0.007 | 0.0077 | 0.0085
x1 = 1.44e-05, x2 = 0.001799 | 0.00556 | 0.00629 | 0.00704 | 0.0079 | 0.0088
x1 = 1.468e-05, x2 = 0.0009002 | 0.00539 | 0.00609 | 0.0068 | 0.0076 | 0.0084
x1 = 1.478e-05, x2 = 0 | 0.00603 | 0.0068 | 0.0075 | 0.0083 | 0.0092
x1 = 1.585e-05, x2 = 0.001799 | 0.00586 | 0.00664 | 0.00743 | 0.0083 | 0.0092
x1 = 1.595e-05, x2 = 0.0009002 | 0.00568 | 0.00642 | 0.0072 | 0.008 | 0.0089
x1 = 1.622e-05, x2 = 0 | 0.00644 | 0.0072 | 0.008 | 0.0089 | 0.0098
x1 = 1.722e-05, x2 = 0.0009002 | 0.00598 | 0.00676 | 0.0075 | 0.0084 | 0.0093
x1 = 1.731e-05, x2 = 0.001799 | 0.00617 | 0.00698 | 0.00783 | 0.0087 | 0.0097
x1 = 1.766e-05, x2 = 0 | 0.00687 | 0.0077 | 0.0085 | 0.0094 | 0.0104

CCCCCC[n+]1ccn(C)c1.F[B-](F)(F)F + CC(C)O
101 kPa
Settings | viscosity [mPa·s]
293.15 K, x2 = 0.9165 | 3.61
303.15 K, x2 = 0.1493 | 68.1
303.15 K, x2 = 0.3752 | 26.9
303.15 K, x2 = 0.5845 | 11.6
303.15 K, x2 = 0.7067 | 7.02
303.15 K, x2 = 0.762 | 5.47
313.15 K, x2 = 0.2992 | 24.9
313.15 K, x2 = 0.762 | 3.99
323.15 K, x2 = 0 | 50.3
323.15 K, x2 = 0.2289 | 21.4
323.15 K, x2 = 0.2992 | 18.8
333.15 K, x2 = 0 | 34
333.15 K, x2 = 0.1493 | 20.7
333.15 K, x2 = 0.3752 | 10.33
333.15 K, x2 = 0.762 | 2.35

COP(=O)([O-])OC.Cn1cc[n+](C)c1 + CC(C)O
101 kPa
Settings | viscosity [mPa·s]
293.15 K, x2 = 0 | 416
293.15 K, x2 = 0.0999 | 357
298.15 K, x2 = 0.2032 | 183
298.15 K, x2 = 0.5002 | 53.3
298.15 K, x2 = 0.7009 | 17.98
303.15 K, x2 = 0.5002 | 43.28
308.15 K, x2 = 0.7009 | 13.26
308.15 K, x2 = 0.9013 | 3.819
313.15 K, x2 = 0 | 119.2
313.15 K, x2 = 0.0999 | 106.6
313.15 K, x2 = 0.2032 | 82.2
313.15 K, x2 = 0.301 | 63.1
318.15 K, x2 = 0.2032 | 66.1
318.15 K, x2 = 0.5002 | 25.15
318.15 K, x2 = 0.7009 | 10.13
323.15 K, x2 = 0.5002 | 21.5
323.15 K, x2 = 0.9013 | 2.638

CCCCCC[n+]1ccn(C)c1.F[B-](F)(F)F + CC(C)O + CCCO
viscosity [mPa·s], 101 kPa
Settings | 293.15 K | 303.15 K | 313.15 K
x2 = 0.0547, x3 = 0.092 | 153.8 | 92 | –
x2 = 0.0978, x3 = 0.4041 | 31.47 | 21.38 | 15.28
x2 = 0.1003, x3 = 0.7991 | 4.92 | 3.33 | 2.35
x2 = 0.1006, x3 = 0.6013 | 13.2 | 9.16 | 6.69
x2 = 0.1012, x3 = 0.4996 | 20.14 | 13.93 | 10.1
x2 = 0.1014, x3 = 0.7009 | 8.3 | 5.74 | 4.16
x2 = 0.1116, x3 = 0.2875 | 49.62 | 32.6 | 22.59
x2 = 0.1293, x3 = 0.1504 | 85.1 | 53.44 | –
x2 = 0.1973, x3 = 0.1121 | 75.21 | 48.39 | 32.33
x2 = 0.1985, x3 = 0.4006 | 20.51 | 14.2 | 10.17
x2 = 0.1992, x3 = 0.3012 | 32.59 | 21.43 | 15.29
x2 = 0.2003, x3 = 0.2005 | 49.41 | 32.39 | 22.5
x2 = 0.2003, x3 = 0.4992 | 13.3 | 9.31 | 6.79
x2 = 0.2012, x3 = 0.6984 | 5 | 3.35 | 2.37
x2 = 0.2977, x3 = 0.1042 | 50.06 | 32.73 | 22.7
x2 = 0.2999, x3 = 0.4989 | 8.8 | 6.05 | 4.35
x2 = 0.3037, x3 = 0.4006 | 13.28 | 9.19 | 6.68
x2 = 0.3046, x3 = 0.5961 | 5.05 | 3.39 | 2.36
x2 = 0.3058, x3 = 0.3005 | 20.27 | 13.93 | 10.1
x2 = 0.3977, x3 = 0.2999 | 13.8 | 9.55 | 6.92
x2 = 0.3985, x3 = 0.104 | 31.6 | 21.33 | 15.15
x2 = 0.3987, x3 = 0.3005 | 13.61 | 9.43 | 6.88
x2 = 0.3989, x3 = 0.3998 | 8.77 | 6.02 | 4.33
x2 = 0.3989, x3 = 0.5015 | 5.18 | 3.4 | 2.38
x2 = 0.4002, x3 = 0.1968 | 21.12 | 14.53 | 10.38
x2 = 0.4992, x3 = 0.4006 | 5.21 | 3.47 | 2.4
x2 = 0.5004, x3 = 0.0998 | 20.98 | 14.38 | 10.33
x2 = 0.5013, x3 = 0.3019 | 8.68 | 5.91 | 4.23
x2 = 0.5734, x3 = 0.2335 | 8.61 | 5.85 | 4.17
x2 = 0.6, x3 = 0.0992 | 13.73 | 9.47 | 6.84
x2 = 0.6001, x3 = 0.3004 | 5.39 | 3.43 | 2.38
x2 = 0.6942, x3 = 0.1049 | 8.82 | 5.98 | 4.27
x2 = 0.698, x3 = 0.2007 | 5.44 | 3.54 | 2.45
x2 = 0.7991, x3 = 0.101 | 5.41 | 3.47 | 2.37

COP(=O)([O-])OC.Cn1cc[n+](C)c1 + CC(C)O + O
100 kPa
Settings | viscosity [mPa·s]
298.15 K, x2 = 0.248, x3 = 0.2507 | 83
303.15 K, x2 = 0.2, x3 = 0.1998 | 87
313.15 K, x2 = 0.148, x3 = 0.1518 | 81
323.15 K, x2 = 0.1, x3 = 0.0988 | 80
333.15 K, x2 = 0.044, x3 = 0.043 | 92
